Measured values as given in patent publication US20240366560A1, “SMALL MOLECULE TREATMENT OF FATTY LIVER DISEASE AND HCC” (ScandiEdge Therapeutics AB, priority 2021, published 2024).

Columns and labels:
[1] = test system: steatosis-induced HepG2; test: Triglyceride assay in steatosis-induced HepG2; format: cell-based; details: steatosis-induced HepG2, 7 days of drug treatment, FIG. 2D
Experimental: All of cells were incubated in the incubator with 5% CO2 and 37° C. (Thermo […]). Fresh medium was provided every two days.

[2] = test system: HSD-fed rats; test: In vivo efficacy study in HSD-fed steatosis rats: histopathological examination; details: 30 mg/kg; for degeneration in renal tubule epithelium / fattening in the parenchyma cells of pancreas tissues / degeneration in hepatocytes in liver tissues / steatosis in hepatocytes in liver tissues: HSD 3w group: severe; for degeneration in hepatocytes in liver tissues / steatosis in hepatocytes in liver tissues: FIG. 3
Excerpt: In vivo efficacy studies. After 1-week acclimation period, rats were randomly separated into two groups: control group (n=5) and high sucrose group (n=20). The control group was fed with a standard diet while the others consumed high sucrose diet (HSD). Sucrose was purchased from Sigma Chemical Co. (St Louis, MO, USA) and supplied at the dose of 10% in the drink water for two weeks.
After 2 weeks, five rats in the HSD group were randomly sacrificed for conformation of NAFLD model. Then, the remaining rats in the HSD group were separated into three sub-groups (n=5): HSD group, HSD plus BX-912 group and HSD plus JNK-IN-5A group. BX-912 and JNK-IN-5A were dissolved in DMSO and were orally administrated using oral gavage for one week (30 mg/kg/day). The HSD group were treated with vehicle solution only.
At the end of the experiment, rats were sacrificed after being anesthetized. Blood samples were collected from the abdominal aorta and centrifuged at 8000 rpm for 15 min at 4° C. The plasma was separated and stored at −80° C. until further analysis. Other internal organs, including the heart, adipose tissues, liver, kidney, muscle, intestine (duodenum, ileum, jejunum), pancreas, colon and stomach were immediately removed and then snap frozen in liquid nitrogen and stored at −80° C.; the liver was also fixed in 10% formaldehyde for histopathological examination.
Histopathological examination. The liver tissues were fixed in 10% buffered formaldehyde solution. After fixation, the tissues were passed through graded alcohol and xylene series and embedded in paraffin blocks. 5 micrometer thick sections were taken serially from the paraffin blocks. Histopathological changes were evaluated by performing hematoxylin eosin staining on the sections taken. Sections were evaluated according to histopathological findings as none (−), mild (+), moderate (++) and severe (+++).
Next, the efficacy of these two drugs in a steatosis rat study was investigated by feeding the animals with HSD. Five groups of 12-week-old rats (n=5) were raised. For two weeks, the first group was fed with CHOW and the remaining four groups were fed with HSD. […] One of the remaining groups was fed with HSD (HSD 3w) for seven days. Another one of the remaining groups was fed with HSD plus BX-912 (30 mg/kg) for seven days. The last one of the remaining groups was fed with HSD plus JNK-IN-5A (30 mg/kg) for seven days. After said seven days, all three groups were sacrificed, and tissue samples from the liver and other major organs and blood samples were collected for efficacy examination. A histopathological and immunohistochemical analysis was performed on the liver samples and other major organs obtained from the three rat groups.

[3] = test system: PKLR; test: PKLR protein level by western blot in steatosis-induced HepG2, 7-day drug treatment; format: cell-based; details: steatosis-induced HepG2, 7 days of drug treatment, P<0.05, FIG. 2B
Experimental: WT HepG2 was included in this study and cultured by Roswell Park Memorial Institute (RPMI, R2405, Sigma Aldrich) 1640 Medium with 10% fetal bovine serum (FBS) and 1% penicillin-streptomycin (PS). To induce a steatosis model into WT HepG2 cells, high glucose Dulbecco's Modified Eagle Media (DMEM, D0822/D5671, Sigma-Aldrich) containing 10% FBS and 1% PS was used as medium for one week, together with 10 μg/mL insulin and 10 μM T0901317. All of cells were incubated in the incubator with 5% CO2 and 37° C. (Thermo SCIENTIFIC). Fresh medium was provided every two days.
As for drug-screening, different numbers of HepG2 cells were seeded for distinct experiments. More in details, 40,000 cells and 500,000 cells were used for 2-day-drug treatment in 96-well-plate and 6-well plate, respectively, while 80,000 cells and 300,000 cells were used for one-week drug treatment in 96-well plate and 6-well plate, respectively. Detailed drug dosages could be found in FIG. 5. Fresh medium was provided every two days.
Protein content levels were detected by western blot. After the respective treatment of drugs, the cell pellets were lysed in cell lytic M, followed by protein extraction from supernatant (10 min, 13,000r/min centrifuge). Extracted cell lysate was stored in −20° C. Proteins were quantified through Bovine albumin serum (BAS) standard curve with protein assay dye reagent (BIO-RAD). The proteins were separated by SDS-PAGE with 100v in 90 min by mini-protein TGX precast gels (4-15%, 15 wells, 15 μl/well, BIO-RAD), and then transfer to Mini PVDF transfer package through transfer system (Transfer-Turbo, BIO-RAD). After 30 min blocking with 5% skim milk in cold room (4° C.) and washing with TBST, membrane was cut by the size of interested proteins. Primary antibodies were added into the corresponding membrane sections for overnight binding. Then the membranes were washed with TBST, and the secondary antibodies were incubated for 1 h in cold room. The following antibody were used: (Goat pAb to Rb lg, ab205718, abcam; Rb pAb to beta-actin, ab8227, abcam; anti-pklr, HPA006653, SIGMA; Rb pAb to fatty acid synthase, ab99539, abcam). The bindings were imaged by immunostaining and machine (ImageQuant LAS 500). All antibodies were purchased from Abcam online, and βactin was used as global normalized protein. After measurement, the strength of signal for each protein was quantified by ImageJ. The background noise was removed, and all results were normalized by the levels of β-actin.
To further analyse the effect of these drugs on lipid accumulation via the DNL pathway, steatosis was induced to HepG2 by treating the cells with high glucose medium (DMEM), insulin and T0901317 (Hansmannel et al., 2006). […] Therefore, the effects of these two drugs on the de novo synthesis of lipids were investigated based on the steatosis-induced HepG2 model. […] Taken together, it was shown that BX-912 and JNK-IN-5A effectively alleviate the protein expression of PKLR and FASN as well as TG levels in HepG2 cell lines, and thus, it was decided to perform in vivo evaluations to test the effect of these two drugs.

| Structure (SMILES) | content of TGs (normalized by cell viability) [1] | degeneration in renal tubule epithelium ([2]; HSD-fed rats, 7 days) | fattening in the parenchyma cells of pancreas tissues ([2]; HSD-fed rats, 7 days) | degeneration in hepatocytes in liver tissues ([2]; HSD-fed rats, 7 days) | steatosis in hepatocytes in liver tissues ([2]; HSD-fed rats, 7 days) | toxic effect on small intestine, large intestine, stomach, heart and muscle tissues ([2]; rat, in vivo) | protein expression level of PKLR [3] | toxic effect on small intestine, large intestine, stomach, heart and muscle tissues ([2]; HSD-fed rats, 7 days) |
| --- | --- | --- | --- | --- | --- | --- | --- | --- |
| O=C(Nc1cccc(Nc2ncc(Br)c(NCCc3cnc[nH]3)n2)c1)N1CCCC1 [BX-912, N-[3-[[5-bromo-4-[[2-(1H-imidazol-5-yl)ethyl]amino]-2-pyrimidinyl]amino]phenyl]-1-pyrrolidinecarboxamide] | significantly decreased | mild | mild | Mild | moderate | no toxic effect | significantly decreased | – |
| N#Cc1c(NC(=O)c2cccc3ccccc23)sc2c1CCCC2 [JNK-IN-5A, N-(3-cyano-4,5,6,7-tetrahydrobenzo [b]thien-2-yl)-1-naphthalenecarboxamide] | significantly decreased | mild | mild | mild | mild | – | significantly decreased | no toxic effect |
